We go through three compounds from US10190138B2, “Methods using short chain peracids to replace antibiotics for controlling fermentation process infection” (Ecolab USA Inc., priority 2012, dated 2019).

The conditions of series [1]: pH 4. An excerpt: The issue of low solubility when using long chain peracids has been addressed by increasing the pH to above 7. […] Further, bleaching efficacy decreases proportionally with every pH unit increase over about 7.
The next series relates to Lactobacilli. The following applies: 2 hours of contact time in the absence of yeast; cited from earlier work.
Another series relates to L. fermentum. In words: MRS broth fermentation, CO2 respirometry. Format: cell-based, Lactobacillus fermentum. To be noted: 1 ppm, 1×10^5 cell/mL start. On the procedure: Solutions of Vortexx and Octave were provided by the Ecolab, Inc. The antibiotic Virginiamycin was purchased from SantaCruz Biotechnology. Ethanol Red yeast (Fermentis), and Lactobacillus fermentum were revived from 10% glycerol stocks maintained at […]. Yeast was grown at 30° C. under aerobic conditions in either liquid YPD medium or on YPD agar prior to use in propagations and fermentations. Bacteria were grown at 30° C. under anaerobic conditions in either liquid MRS broth, and or on MRS agar plates. Liquefied corn mash and gluco-amylase enzyme was provided by Illinois River Energy (Rochelle, Ill.).
Fermentations were conducted in Wheaton glass bottles placed in a 30° C. recirculating water bath atop an 8-position magnetic stir-plate. Each bottle was sealed with a rubber septum cap and connected through ⅛″ tubing to a respirometer instrument (Challenger Instruments), which quantified the off-gassing of CO2 during fermentation.
MRS broth fermentations were conducted in 0.125 L Wheaton bottles, each containing the 100 mL of MRS broth and 4 mL propagated bacteria. […]
MRS broth, which contains only 0.6% solids compared to typical liquefied corn mash at 30% solids, represents a relatively simple test of the effectiveness of the peracid chemistries for controlling Lactobacillus growth. […] All bottles were placed monitored via respirometry under identical conditions. […]

Turning to `O=C(CCCCCCCCCCS(=O)(=O)O)OO` [11-sulfoundecane peroxoic acid], the solubility entry in series [1] is “about 1.3%”.

For the compound `OO` [hydrogen peroxide], the “hydrogen peroxide required for effective bacterial control” value in the series on Lactobacilli is on record as 600 ppm.

Turning to Virginiamycin, in the series on L. fermentum, the CO2 production entry is recorded as “failed to produce any CO2” and the bacterial growth result was “no bacterial growth”.
